Laboratory results taken from PubChem BioAssay AID292 (DTP/NCI, 2004).
Where “and” joins values, the source holds several entries; their conditions need not be identical. Equal values may be shown once. Toxic doses and inconclusive results are not listed. The calls were made as follows: active = survival T/C of 150% or more; inactive = T/C below 125% in these data.

Test system: B6C3F1 mice, ip Sarcoma M5076, median survival T/C
Assay: NCI In Vivo Anticancer Drug Screen. Data for tumor model Sarcoma M5076 (intraperitoneal) in B6C3F1 mice
Settings: endpoint: median survival time, schedule: Q04DX004 (ip), higher = longer survival
Summary of the method: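 The readout is a ratio of survival in drug-treated animals to survival in animals given vehicle alone, taken in mice bearing a transplanted tumour line.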

[1] = dose: 25.0 mg/kg/injection, vehicle: Klucel (hydroxypropylcellulose) (HPC)
[2] = dose: 50.0 mg/kg/injection, vehicle: Klucel (hydroxypropylcellulose) (HPC)
[3] = dose: 100.0 mg/kg/injection, vehicle: Klucel (hydroxypropylcellulose) (HPC)
[4] = dose: 200.0 mg/kg/injection, vehicle: Klucel (hydroxypropylcellulose) (HPC)
[5] = dose: 50.0 mg/kg/injection, vehicle: saline
[6] = dose: 100.0 mg/kg/injection, vehicle: saline
[7] = dose: 50.0 mg/kg/injection, vehicle: suspension in saline
[8] = dose: 200.0 mg/kg/injection, vehicle: suspension in saline

Measured: T/C

COC(=O)NC1C(C)OC(OC2C/C=C(/C)C3C=CC4C(OC5CC(OC6CC(OC7CC(O)C(O)C(C)O7)C(OC7CC(O)C(OC)C(C)O7)C(C)O6)C(O)C(C)O5)C(C)CC(C)C4C3(C)/C(O)=C3\C(=O)OC4(CC(C)C(CO)=CC4/C=C\2C)C3=O)CC1(C)[N+](=O)[O-] (centres undefined)
inactive: dose: 12.5 mg/kg/injection, vehicle: water 97 % of control | dose: 25.0 mg/kg/injection, vehicle: water 100 % of control | dose: 50.0 mg/kg/injection, vehicle: water 94 % of control | dose: 100.0 mg/kg/injection, vehicle: water 104 % of control | dose: 200.0 mg/kg/injection, vehicle: water 111 % of control

C/C=C/C=C\C=C/C(O)CC(OP(=O)(O)O)C(C)(O)/C=C/C1CC=CC(=O)O1 (centres undefined)
inactive: dose: 0.75 mg/kg/injection, vehicle: Klucel (hydroxypropylcellulose) (HPC) 104 % of control | dose: 1.5 mg/kg/injection, vehicle: Klucel (hydroxypropylcellulose) (HPC) 112 % of control | dose: 1.5 mg/kg/injection, vehicle: water 106 % of control | dose: 3.0 mg/kg/injection, vehicle: Klucel (hydroxypropylcellulose) (HPC) 111 % of control | dose: 3.0 mg/kg/injection, vehicle: water 108 % of control and 111 % of control | dose: 6.0 mg/kg/injection, vehicle: Klucel (hydroxypropylcellulose) (HPC) 112 % of control | dose: 6.0 mg/kg/injection, vehicle: water 108 % of control and 113 % of control | dose: 12.0 mg/kg/injection, vehicle: water 108 % of control | dose: 24.0 mg/kg/injection, vehicle: water 112 % of control

CCOc1c2c(nn(C)c1=O)Oc1ccccc1N2CCCN1CCOCC1
inactive: dose: 7.5 mg/kg/injection, vehicle: saline with Tween-80 92 % of control | dose: 15.0 mg/kg/injection, vehicle: saline with Tween-80 106 % of control | dose: 30.0 mg/kg/injection, vehicle: saline with Tween-80 113 % of control | dose: 60.0 mg/kg/injection, vehicle: saline with Tween-80 97 % of control

CCCCCNc1ncnc2c(C)[nH]nc12
inactive: [1] 105 % of control | [2] 97 % of control | [3] 103 % of control | [4] 88 % of control

COC1CC2C=C(C)/C=C/C=C/C(=O)NC(c3ccccc3)C/C=C/CCC(O)CC(=O)C2=C1O (centres undefined)
inactive: dose: 3.12 mg/kg/injection, vehicle: Klucel (hydroxypropylcellulose) (HPC) 112 % of control | dose: 6.25 mg/kg/injection, vehicle: Klucel (hydroxypropylcellulose) (HPC) 118 % of control | dose: 12.5 mg/kg/injection, vehicle: Klucel (hydroxypropylcellulose) (HPC) 110 % of control | [1] 123 % of control

O=C(NCc1ccccc1)C1C(=O)C(=O)N(Cc2ccccc2)C1=O (centres undefined)
inactive: [2] 92 % of control | [3] 102 % of control | [4] 100 % of control | dose: 400.0 mg/kg/injection, vehicle: Klucel (hydroxypropylcellulose) (HPC) 100 % of control | dose: 800.0 mg/kg/injection, vehicle: Klucel (hydroxypropylcellulose) (HPC) 96 % of control

CC(C)c1ccc(C2NC(=S)NC(=O)C2C#N)cc1 (centres undefined)
inactive: [5] 100 % of control | [6] 97 % of control | dose: 200.0 mg/kg/injection, vehicle: saline 88 % of control

NC(=S)N/N=C/c1ncccc1O
inactive: [7] 103 % of control | dose: 100.0 mg/kg/injection, vehicle: suspension in saline 101 % of control | [8] 101 % of control | dose: 400.0 mg/kg/injection, vehicle: suspension in saline 102 % of control

O=S1(=O)C(c2cccc(F)c2)=C(O)c2cc3ccccc3nc21
inactive: dose: 26.57 mg/kg/injection, vehicle: saline with Tween-80 100 % of control | dose: 53.13 mg/kg/injection, vehicle: saline with Tween-80 92 % of control | dose: 106.25 mg/kg/injection, vehicle: saline with Tween-80 96 % of control | dose: 212.5 mg/kg/injection, vehicle: saline with Tween-80 92 % of control

COc1cc2c(c(OC)c1O)-c1ccc(OC)c(=O)cc1[C@@H](NC(=O)C(F)(F)F)CC2
inactive: dose: 0.9 mg/kg/injection, vehicle: Klucel (hydroxypropylcellulose) (HPC) 110 % of control | dose: 1.55 mg/kg/injection, vehicle: Klucel (hydroxypropylcellulose) (HPC) 124 % of control | dose: 2.59 mg/kg/injection, vehicle: Klucel (hydroxypropylcellulose) (HPC) 122 % of control | dose: 4.32 mg/kg/injection, vehicle: Klucel (hydroxypropylcellulose) (HPC) 124 % of control | dose: 7.2 mg/kg/injection, vehicle: Klucel (hydroxypropylcellulose) (HPC) 124 % of control

CC1OC(O[C@H]2/C=C/C=C/C=C/C=C/C=C/C=C/C=C/[C@H](C)[C@@H](O)[C@@H](C)[C@H](C)OC(=O)C[C@H](O)C[C@H](O)CC[C@@H](O)[C@H](O)C[C@H](O)C[C@]3(O)C[C@H](O)[C@@H](C(=O)O)[C@H](C2)O3)C(O)C(N)C1O (some centres undefined)
inactive: dose: 3.12 mg/kg/injection, vehicle: suspension in saline 97 % of control | dose: 6.25 mg/kg/injection, vehicle: suspension in saline 105 % of control | dose: 12.5 mg/kg/injection, vehicle: suspension in saline 100 % of control and 101 % of control | dose: 25.0 mg/kg/injection, vehicle: suspension in saline 100 % of control and 109 % of control | [7] 98 % of control and 107 % of control

N#CC1C(=O)NC(=S)NC1c1ccc(C2CC(=O)NC(=S)N2)cc1 (centres undefined)
inactive: dose: 50.0 mg/kg/injection, vehicle: saline with Tween-80 93 % of control | dose: 100.0 mg/kg/injection, vehicle: saline with Tween-80 106 % of control | dose: 200.0 mg/kg/injection, vehicle: saline with Tween-80 94 % of control | dose: 400.0 mg/kg/injection, vehicle: saline with Tween-80 90 % of control | dose: 800.0 mg/kg/injection, vehicle: saline with Tween-80 92 % of control

c1cc2c(c(CC3CO3)c1CC1CO1)OCCOCCOCCOCCO2 (centres undefined)
inactive: dose: 25.0 mg/kg/injection, vehicle: saline + alcohol 107 % of control | dose: 50.0 mg/kg/injection, vehicle: saline + alcohol 108 % of control | dose: 100.0 mg/kg/injection, vehicle: saline + alcohol 111 % of control | dose: 200.0 mg/kg/injection, vehicle: saline + alcohol 120 % of control

S=c1sc(-c2ccc(Cl)cc2)nn1CSc1nc2ccccc2o1
inactive: dose: 37.5 mg/kg/injection, vehicle: saline with Tween-80 86 % of control | dose: 300.0 mg/kg/injection, vehicle: saline with Tween-80 94 % of control

[Cl][Mn][Cl]
inactive: dose: 12.5 mg/kg/injection, vehicle: saline 96 % of control | dose: 25.0 mg/kg/injection, vehicle: saline 100 % of control | [5] 124 % of control | [6] 111 % of control

Nc1nc2n[nH]nc2c(=O)[nH]1
inactive: [7] 118 % of control | [8] 123 % of control
